Experimental data as given in ChEMBL document CHEMBL5512675, “Design of Selective PARP-1 Inhibitors and Antitumor Studies” (J Med Chem, 2024).

Tests used:
[1] = target: Poly [ADP-ribose] polymerase 1 (Mus musculus, UniProt P11103); assay: Inhibition of recombinant mouse PARP-1 incubated for 16 hrs in presence of NAD+ by liquid scintillation spectrometry based scintillation proximity assay
[2] = target: Poly [ADP-ribose] polymerase 1 (Homo sapiens, UniProt P09874); assay: Inhibition of GST-tagged human PARP1 incubated for 30 mins by chemiluminescence based UV/visible spectrophotometric analysis
[3] = target: Poly [ADP-ribose] polymerase 2 (Homo sapiens, UniProt Q9UGN5); assay: Inhibition of GST-tagged human PARP2 incubated for 30 mins by chemiluminescence based UV/visible spectrophotometric analysis
SK-OV-3 [4] = assay: animal or person; conditions: Mus musculus, SK-OV-3, po, 744 h, read-out: TGI
Description: Antitumor activity against human SK-OV-3 cells xenografted in female BALB/c nude mouse assessed as tumor growth inhibition at 50 mg/kg, po administered via gavage once daily for 31 days relative to control

SK-OV-3 [5] = assay: cells; conditions: Homo sapiens, SK-OV-3, 72 h
Description: Antiproliferative activity against human SK-OV-3 cells assessed as inhibition of cell proliferation incubated for 72 hrs

C-33-A = assay: cells; conditions: Homo sapiens, 72 h
Description: Antiproliferative activity against human C-33-A cells assessed as inhibition of cell proliferation incubated for 72 hrs

SiHa = assay: cells; conditions: Homo sapiens, 72 h
Description: Antiproliferative activity against human SiHa cells assessed as inhibition of cell proliferation incubated for 72 hrs

in vitro [6] = conditions: human, H8 cells
Description: Cytotoxicity against human H8 cells assessed as inhibition of cell proliferation incubated for 72 hrs

[7] = Inhibition of PARP1 Ala755Gln, Gln759Ser and Val762Ile mutant (unknown origin) incubated for 1 hrs in presence of NAD and DNA by ELISA
HCC1937 = assay: cells; conditions: Homo sapiens, HCC1937, 72 h
Description: Antiproliferative activity against human HCC1937 cells harboring BRCA2 mutant assessed as inhibition of cell proliferation incubated for 72 hrs

A549 = assay: cells; conditions: Homo sapiens, A549, 72 h
Description: Antiproliferative activity against human A549 cells assessed as inhibition of cell proliferation incubated for 72 hrs

CAPAN-1 = assay: cells; conditions: Homo sapiens, CAPAN-1, 72 h
Description: Antiproliferative activity against human CAPAN-1 cells harboring BRCA1 mutant assessed as inhibition of cell proliferation incubated for 72 hrs

HCT-116 = assay: cells; conditions: Homo sapiens, HCT-116, 72 h
Description: Antiproliferative activity against human HCT-116 cells assessed as inhibition of cell proliferation incubated for 72 hrs

in vitro [8] = conditions: human, NCM460 cells
Description: Cytotoxicity against human NCM460 cells assessed as inhibition of cell proliferation incubated for 72 hrs

Poly [ADP-ribose] polymerase 1 (Homo sapiens, UniProt P09874), sequence (P09874 whole entry): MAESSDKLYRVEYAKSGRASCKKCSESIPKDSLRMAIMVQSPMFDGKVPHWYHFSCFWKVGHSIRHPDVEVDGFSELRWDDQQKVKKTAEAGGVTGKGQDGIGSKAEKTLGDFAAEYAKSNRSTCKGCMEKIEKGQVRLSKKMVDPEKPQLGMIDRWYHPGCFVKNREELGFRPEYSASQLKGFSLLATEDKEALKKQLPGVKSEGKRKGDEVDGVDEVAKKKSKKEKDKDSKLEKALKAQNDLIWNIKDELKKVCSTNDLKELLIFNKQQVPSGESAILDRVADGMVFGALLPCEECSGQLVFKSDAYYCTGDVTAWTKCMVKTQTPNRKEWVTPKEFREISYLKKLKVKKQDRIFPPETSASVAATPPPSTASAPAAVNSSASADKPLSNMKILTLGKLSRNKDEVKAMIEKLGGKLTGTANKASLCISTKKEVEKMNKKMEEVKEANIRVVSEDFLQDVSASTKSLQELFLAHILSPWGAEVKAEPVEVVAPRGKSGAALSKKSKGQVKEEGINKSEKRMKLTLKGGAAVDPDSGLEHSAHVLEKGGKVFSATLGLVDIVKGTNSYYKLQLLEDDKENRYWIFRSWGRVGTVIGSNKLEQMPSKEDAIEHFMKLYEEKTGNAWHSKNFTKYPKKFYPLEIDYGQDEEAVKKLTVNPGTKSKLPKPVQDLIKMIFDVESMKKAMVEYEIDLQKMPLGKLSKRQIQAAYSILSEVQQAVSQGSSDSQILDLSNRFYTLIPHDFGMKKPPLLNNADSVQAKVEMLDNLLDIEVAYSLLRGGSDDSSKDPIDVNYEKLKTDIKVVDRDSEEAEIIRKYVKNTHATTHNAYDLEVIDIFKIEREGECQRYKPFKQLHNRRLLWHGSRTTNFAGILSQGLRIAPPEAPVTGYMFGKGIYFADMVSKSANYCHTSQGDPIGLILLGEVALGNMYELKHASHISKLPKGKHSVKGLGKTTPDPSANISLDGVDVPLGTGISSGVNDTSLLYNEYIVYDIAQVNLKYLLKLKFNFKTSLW
Poly [ADP-ribose] polymerase 2, sequence (Q9UGN5 whole entry): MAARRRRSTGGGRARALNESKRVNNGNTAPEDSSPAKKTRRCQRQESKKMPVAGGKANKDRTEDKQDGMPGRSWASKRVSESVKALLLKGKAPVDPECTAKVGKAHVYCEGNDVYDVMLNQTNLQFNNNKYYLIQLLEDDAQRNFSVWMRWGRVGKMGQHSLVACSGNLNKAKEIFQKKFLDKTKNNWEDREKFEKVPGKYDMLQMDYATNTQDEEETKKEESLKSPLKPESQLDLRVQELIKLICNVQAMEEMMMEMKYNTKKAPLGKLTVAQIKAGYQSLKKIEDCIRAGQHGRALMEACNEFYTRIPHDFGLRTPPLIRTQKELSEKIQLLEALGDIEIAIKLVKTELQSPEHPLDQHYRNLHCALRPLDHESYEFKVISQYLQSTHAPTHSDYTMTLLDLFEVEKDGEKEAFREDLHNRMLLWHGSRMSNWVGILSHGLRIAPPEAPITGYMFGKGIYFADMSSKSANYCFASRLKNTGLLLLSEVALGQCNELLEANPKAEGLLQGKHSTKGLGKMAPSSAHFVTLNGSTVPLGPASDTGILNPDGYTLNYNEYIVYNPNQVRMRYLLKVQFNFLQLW
Poly [ADP-ribose] polymerase 1 (Mus musculus, UniProt P11103), sequence (P11103 whole entry): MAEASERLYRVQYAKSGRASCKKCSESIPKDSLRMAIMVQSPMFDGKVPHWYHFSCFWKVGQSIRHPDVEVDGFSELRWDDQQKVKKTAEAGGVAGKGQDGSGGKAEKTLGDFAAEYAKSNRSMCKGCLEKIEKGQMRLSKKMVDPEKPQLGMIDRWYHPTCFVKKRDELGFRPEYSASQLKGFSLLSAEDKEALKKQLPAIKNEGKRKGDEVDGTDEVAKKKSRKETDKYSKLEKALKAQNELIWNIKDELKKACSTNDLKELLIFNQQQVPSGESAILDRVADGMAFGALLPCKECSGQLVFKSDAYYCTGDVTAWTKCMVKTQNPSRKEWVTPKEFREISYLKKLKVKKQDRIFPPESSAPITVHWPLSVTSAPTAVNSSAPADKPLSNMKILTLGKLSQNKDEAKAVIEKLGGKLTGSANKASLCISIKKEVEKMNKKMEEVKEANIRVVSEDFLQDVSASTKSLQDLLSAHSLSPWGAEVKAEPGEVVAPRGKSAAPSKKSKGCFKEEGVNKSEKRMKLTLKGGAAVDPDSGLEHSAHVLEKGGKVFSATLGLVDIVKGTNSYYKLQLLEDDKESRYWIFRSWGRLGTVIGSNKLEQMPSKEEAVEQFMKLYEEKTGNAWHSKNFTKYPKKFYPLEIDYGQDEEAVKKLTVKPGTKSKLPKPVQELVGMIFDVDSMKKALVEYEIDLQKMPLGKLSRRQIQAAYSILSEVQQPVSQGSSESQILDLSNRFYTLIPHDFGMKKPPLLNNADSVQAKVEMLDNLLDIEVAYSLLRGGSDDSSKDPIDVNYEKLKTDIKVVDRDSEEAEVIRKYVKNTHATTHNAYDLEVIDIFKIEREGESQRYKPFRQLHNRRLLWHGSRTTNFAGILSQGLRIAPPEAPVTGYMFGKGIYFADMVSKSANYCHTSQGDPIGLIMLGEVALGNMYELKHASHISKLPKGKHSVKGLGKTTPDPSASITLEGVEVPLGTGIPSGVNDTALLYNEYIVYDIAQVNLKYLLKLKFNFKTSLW

Cn1cccc1/C=C1\C(=O)NC(=O)c2ccccc21
IC50 [1]: 4790 nM

COc1cc(/C=N/NC(N)=S)c(Br)c(Br)c1OC
IC50 [2]: 42.9 nM | IC50 [3]: 1560 nM | inhibition in vivo at 50 mg/kg (SK-OV-3 [4]): 57.4%

COc1cc(-c2nc3c(C(N)=O)cccc3[nH]2)cc(Br)c1OC(=O)C(C)(C)C
IC50 [2]: 33.2 nM | IC50 [3]: 2070 nM

COc1cc(-c2nc3c(C(N)=O)cccc3[nH]2)cc(Br)c1OS(=O)(=O)c1c(C)cc(C)cc1C
IC50 [2]: 33.7 nM | IC50 [3]: 1780 nM

CCCS(=O)(=O)Oc1c(Br)cc(-c2nc3c(C(N)=O)cccc3[nH]2)cc1OC
IC50 [2]: 50.5 nM | IC50 [3]: 760 nM

O=C(c1cc(Cc2n[nH]c(=O)c3ccccc23)ccc1F)N1CCN(C(=O)C2CC2)CC1 [OLAPARIB]
IC50 (SK-OV-3 [5]): 167000 nM | IC50 (C-33-A): > 200000 nM | IC50 (SiHa): > 200000 nM | IC50 at 72 h (in vitro [6]): > 200000 nM | IC50 [7]: 10.4 nM | IC50 (HCC1937): 22000 nM | IC50 (A549): > 200000 nM | IC50 (CAPAN-1): 60700 nM | IC50 (HCT-116): > 200000 nM | IC50 at 72 h (in vitro [8]): > 200000 nM
